Assay results as given in ChEMBL document CHEMBL4138121, “Selective photocytotoxicity of anthrols on cancer stem-like cells: The effect of quinone methides or reactive oxygen species” (Eur J Med Chem, 2017).
Calls of active or inactive are those of the source. No cut-off for these calls is given here.

Experiments:
[1] = Dark toxicity against human MCF7 cells after 72 hrs by MTT assay; type: cell-based
HCT-116 [2] = test: Photocytotoxicity against human HCT116 cells assessed as growth inhibition irradiated at 420 nm at 4, 24, 48 hrs post compound addition for 5 mins measured after 72 hrs by MTT assay; type: functional, cell-based; details: HCT-116, light or radiation study
NCI-H460 [3] = test: Photocytotoxicity against human H460 cells assessed as growth inhibition irradiated at 350 nm at 4, 24, 48 hrs post compound addition for 5 mins measured after 72 hrs by MTT assay; type: functional, cell-based; details: NCI-H460, light or radiation study
[4] = Photocytotoxicity against HMLE-shGFP cells assessed as growth inhibition irradiated at 350 nm at 4, 24, 48 hrs post compound addition for 5 mins measured after 72 hrs by MTT assay; type: cell-based; details: Homo sapiens, light or radiation study
[5] = Cell cycle arrest in HMLE-shGFP cells assessed as delay in G1 phase at 5 uM after 24 to 48 hrs in absence of irradiation by propidium iodide staining-based flow cytometric method; details: human
[6] = Drug uptake in cytoplasm of HMLE-shGFP cells at 5 uM irradiated at 420 nm for 5 mins measured after 2 to 3 hrs by confocal microscopic method; type: ADME, subcellular; details: human
[7] = Dark toxicity against human SUM159 cells after 72 hrs by MTT assay; type: cell-based, SUM-159-PT
[8] = Drug uptake in nucleus of HMLE-shEcad cells at 5 uM in absence of irradiation measured after 2 to 3 hrs by confocal microscopic method; type: ADME, subcellular; details: human
HCT-116 [9] = test: Photocytotoxicity against human HCT116 cells assessed as growth inhibition irradiated at 350 nm at 4, 24, 48 hrs post compound addition for 5 mins measured after 72 hrs by MTT assay; type: functional, cell-based; details: HCT-116, light or radiation study
[10] = Photocytotoxicity against HMLE-shEcad cells assessed as growth inhibition irradiated at 420 nm at 4, 24, 48 hrs post compound addition for 5 mins measured after 72 hrs by MTT assay; type: functional, cell-based; details: Homo sapiens, light or radiation study
[11] = Drug uptake in cytoplasm of HMLE-shEcad cells at 5 uM in absence of irradiation measured after 2 to 3 hrs by confocal microscopic method; type: ADME, subcellular; details: human
[12] = Cell cycle arrest in HMLE-shGFP cells assessed as delay in S/G2 phase at 5 uM irradiated at 420 nm at 4 hrs post compound addition for 5 mins measured after 24 to 48 hrs by propidium iodide staining-based flow cytometric method; details: human
NCI-H460 [13] = test: Photocytotoxicity against human H460 cells assessed as growth inhibition irradiated at 420 nm at 4, 24, 48 hrs post compound addition for 5 mins measured after 72 hrs by MTT assay; type: functional, cell-based; details: NCI-H460, light or radiation study
[14] = Anticlonogenic activity against HMLE-shGFP cells at 1 uM irradiated at 350 nm at 4 hrs post compound addition for 5 mins measured after 24 hrs by crystal violet staining-based assay; type: cell-based; details: human
[15] = Induction of cell damage in HMLE-shGFP cells assessed as cell swelling at 5 uM irradiated at 420 nm for 5 mins measured after 2 to 3 hrs by confocal microscopic method; type: cell-based; details: human
[16] = Cytotoxicity against HMLE-shGFP cells at 10 uM irradiated at 420 nm at 4 hrs post compound addition for 5 mins measured after 48 hrs by propidium iodide staining-based flow cytometric method; type: cell-based; details: human
[17] = Photocytotoxicity against HMLE-shGFP cells assessed as growth inhibition irradiated at 420 nm at 4, 24, 48 hrs post compound addition for 5 mins measured after 72 hrs by MTT assay; type: cell-based; details: Homo sapiens, light or radiation study
[18] = Drug uptake in plasma membranes of HMLE-shGFP cells at 5 uM irradiated at 420 nm for 5 mins measured after 2 to 3 hrs by confocal microscopic method; type: ADME, cell membranes, Plasma membrane; details: human
[19] = Cell cycle arrest in HMLE-shEcad cells at 1 to 5 uM after 24 to 48 hrs in absence of irradiation by propidium iodide staining-based flow cytometric method; details: human
SUM-159-PT [20] = test: Photocytotoxicity against human SUM159 cells assessed as growth inhibition irradiated at 420 nm at 4, 24, 48 hrs post compound addition for 5 mins measured after 72 hrs by MTT assay; type: functional, cell-based; details: light or radiation study
HMLE [21] = test: Cytotoxicity against HMLE-shEcad cells at 10 uM irradiated at 420 nm at 4 hrs post compound addition for 5 mins measured after 48 hrs by propidium iodide staining-based flow cytometric method; type: functional, cell-based; details: Homo sapiens
HMLE [22] = test: Anticlonogenic activity against HMLE-shEcad cells at 1 uM irradiated at 350 nm at 4 hrs post compound addition for 5 mins measured after 24 hrs by crystal violet staining-based assay; type: functional, cell-based; details: Homo sapiens
[23] = Drug uptake in nucleus of HMLE-shGFP cells at 5 uM irradiated at 420 nm for 5 mins measured after 2 to 3 hrs by confocal microscopic method; type: ADME, subcellular; details: human
MCF7 [24] = test: Photocytotoxicity against human MCF7 cells assessed as growth inhibition irradiated at 350 nm at 4, 24, 48 hrs post compound addition for 5 mins measured after 72 hrs by MTT assay; type: functional, cell-based; details: MCF7, light or radiation study
[25] = Drug uptake in intracellular membranes of HMLE-shGFP cells at 5 uM irradiated at 420 nm for 5 mins measured after 2 to 3 hrs by confocal microscopic method; type: ADME, cell membranes, Intracellular membrane; details: human
SUM-159-PT [26] = test: Cell cycle arrest in human SUM159 cells in presence of irradiation; type: functional, cell-based
[27] = Dark toxicity against human HCT116 cells after 72 hrs by MTT assay; type: cell-based, HCT-116
HMLE [28] = test: Cell cycle arrest in HMLE-shEcad cells assessed as delay in S/G2 phase at 5 uM irradiated at 420 nm at 4 hrs post compound addition for 5 mins measured after 24 to 48 hrs by propidium iodide staining-based flow cytometric method; type: functional; details: Homo sapiens
MCF7 [29] = test: Photocytotoxicity against human MCF7 cells assessed as growth inhibition irradiated at 420 nm at 4, 24, 48 hrs post compound addition for 5 mins measured after 72 hrs by MTT assay; type: functional, cell-based; details: MCF7, light or radiation study
[30] = Dark toxicity against human H460 cells after 72 hrs by MTT assay; type: cell-based, NCI-H460
[31] = Induction of cell damage in HMLE-shGFP cells assessed as uncoupling of cytoskeleton from plasma membrane at 5 uM irradiated at 420 nm for 5 mins measured after 2 to 3 hrs by confocal microscopic method; type: cell-based; details: human
MCF7 [32] = test: Cell cycle arrest in human MCF7 cells in presence of irradiation; type: functional, cell-based
[33] = Dark toxicity against HMLE-shEcad cells after 72 hrs by MTT assay; type: cell-based; details: human
[34] = Photocytotoxicity against HMLE-shEcad cells assessed as growth inhibition irradiated at 350 nm at 4, 24, 48 hrs post compound addition for 5 mins measured after 72 hrs by MTT assay; type: functional, cell-based; details: Homo sapiens, light or radiation study
[35] = Dark toxicity against HMLE-shGFP cells after 72 hrs by MTT assay; type: cell-based; details: human
[36] = Induction of cell damage in HMLE-shGFP cells assessed as degradation of internal structure at 5 uM irradiated at 420 nm for 5 mins measured after 2 to 3 hrs by confocal microscopic method; type: cell-based; details: human
[37] = Cell cycle arrest in HMLE-shGFP cells assessed as accumulation at G2/M phase at 1 to 10 uM irradiated at 420 nm at 4 hrs post compound addition for 5 mins measured after 24 to 48 hrs by propidium iodide staining-based flow cytometric method; details: human
[38] = Cell cycle arrest in HMLE-shGFP cells assessed as accumulation at S phase at 1 to 10 uM irradiated at 420 nm at 4 hrs post compound addition for 5 mins measured after 24 to 48 hrs by propidium iodide staining-based flow cytometric method; details: human
[39] = Drug uptake in cytoplasm of HMLE-shEcad cells at 5 uM irradiated with UV-light measured after 2 to 3 hrs by confocal microscopic method; type: ADME, subcellular; details: human
[40] = Drug uptake in nucleus of HMLE-shGFP cells at 5 uM irradiated with UV-light measured after 2 to 3 hrs by confocal microscopic method; type: ADME, subcellular; details: human
[41] = Induction of reactive oxygen species generation in HMLE-shGFP cells at 10 uM irradiated at 420 nm for 5 mins measured after 2 hrs by H2DCF-DA dye-based FACS analysis relative to non-irradiated cells; type: cell-based; details: human
HMLE [42] = test: Cell cycle arrest in HMLE-shEcad cells assessed as accumulation at G2/M phase at 1 to 10 uM irradiated at 420 nm at 4 hrs post compound addition for 5 mins measured after 24 to 48 hrs by propidium iodide staining-based flow cytometric method; type: functional; details: Homo sapiens
[43] = Induction of reactive oxygen species generation in HMLE-shEcad cells at 10 uM irradiated at 420 nm for 5 mins measured after 2 hrs by H2DCF-DA dye-based FACS analysis relative to non-irradiated cells; type: functional, Homo sapiens
[44] = Drug uptake in cytoplasm of HMLE-shGFP cells at 5 uM irradiated with UV-light measured after 2 to 3 hrs by confocal microscopic method; type: ADME, subcellular; details: human
HMLE [45] = test: Cell cycle arrest in HMLE-shEcad cells assessed as accumulation at S phase at 1 to 10 uM irradiated at 420 nm at 4 hrs post compound addition for 5 mins measured after 24 to 48 hrs by propidium iodide staining-based flow cytometric method; type: functional; details: Homo sapiens
HMLE [46] = test: Anticlonogenic activity against HMLE-shEcad cells at 0.5 to 1 uM irradiated at 350 nm at 4 hrs post compound addition for 5 mins for 5 mins measured after 24 hrs by crystal violet staining-based assay; type: functional, cell-based; details: Homo sapiens
[47] = Anticlonogenic activity against HMLE-shGFP cells at 0.5 to 1 uM irradiated at 350 nm at 4 hrs post compound addition for 5 mins measured after 24 hrs by crystal violet staining-based assay; type: ADME, cell-based; details: human
[48] = Cell cycle arrest in HMLE-shEcad cells assessed as delay in G1/S phase at 1 to 10 uM after 24 to 48 hrs in absence of irradiation by propidium iodide staining-based flow cytometric method; details: human
[49] = Drug uptake in nucleus of HMLE-shEcad cells at 5 uM irradiated with UV-light measured after 2 to 3 hrs by confocal microscopic method; type: ADME, subcellular; details: human

| SMILES | IC50 (HCT-116 [2]) | IC50 (NCI-H460 [3]) | IC50 [4] | IC50 at 72 h [7] | IC50 (HCT-116 [9]) | IC50 [10] | IC50 (NCI-H460 [13]) | Activity [16] | IC50 [17] | IC50 (SUM-159-PT [20]) | Activity (HMLE [21]) | IC50 (MCF7 [24]) | Activity (SUM-159-PT [26]) | IC50 at 72 h [27] | IC50 (MCF7 [29]) | IC50 at 72 h [30] | Activity (MCF7 [32]) | IC50 at 72 h [33] | IC50 [34] | IC50 at 72 h [35] | further results |
| --- | --- | --- | --- | --- | --- | --- | --- | --- | --- | --- | --- | --- | --- | --- | --- | --- | --- | --- | --- | --- | --- |
| Oc1cc2cc3ccccc3cc2cc1C(O)(c1ccccc1)c1ccccc1 | 2 µM | 3 µM | 1 µM | 4 µM | 2 µM | 2 µM | 2 µM | Toxic | 2 µM | 1 µM | Active | 4 µM | inactive | 21 µM | 2 µM | 19 µM | inactive | 2 µM | 2 µM | 6 µM | IC50 at 72 h [1]: 20 µM; Activity [5]: Toxic; Drug uptake [6]: Active; Drug uptake [8]: Not Active; Drug uptake [11]: Active; Activity [12]: Toxic; Activity [14]: Toxic; Activity [15]: Toxic; Drug uptake [18]: Active; Activity [19]: Non-Toxic; Activity (HMLE [22]): Active; Drug uptake [23]: Not Active; Drug uptake [25]: Active; Activity (HMLE [28]): Active; Activity [31]: Toxic; Activity [36]: Toxic |
| OCc1ccc2cc3ccccc3cc2c1 | 2 µM | 1 µM | 0.6 µM | 13 µM | 1 µM | 2 µM | 2 µM | Toxic | 10 µM | 1 µM | Active | 0.5 µM | inactive | > 100 µM | 2 µM | 33 µM | inactive | 22 µM | 1 µM | 33 µM | Activity [37]: Non-Toxic; Activity [38]: Non-Toxic; Drug uptake [39]: Active; Drug uptake [40]: Not Active; fold change (FC) [41]: 4; Activity (HMLE [42]): Active; fold change (FC) [43]: 7; Drug uptake [44]: Active; Activity (HMLE [45]): Active; Activity (HMLE [46]): inactive; Activity [47]: Non-Toxic; Activity [48]: Toxic; Drug uptake [49]: Not Active |
